Source: patent US6855730B2, “3-methylidenyl-2-indolinone modulators of protein kinase” (Sugen, Inc., priority 1998, dated 2005)

Assays:
PDGFR-β = target: T1, PDGFR-β (Homo sapiens, UniProt P09619); assay: Biochemical PDGFR assay (ELISA, PDGFR-β expressing NIH 3T3 cell lysate); settings: read-out: bio PDGF IC50
T1 construct: host or cells: NIH 3T3
Summary of the method: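 Phosphorylation was read by ELISA (anti-phosphotyrosine serum, peroxidase secondary, ABTS at 410 nm) after a 30 min room-temperature reaction with 20 μM ATP, EDTA-stopped. Kinase was lysate-derived PDGFR-β (NIH 3T3) immobilised via 28D4C10 antibody, compound added 30 min before ATP.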

[1] = target: Myc-GyrB-FGFR fusion protein (Homo sapiens, UniProt P11362); assay: Biochemical FGFR assay (ELISA); settings: read-out: bio fgfR1 IC50
Chain of Myc-GyrB-FGFR fusion protein (P11362 478-767 limits assumed): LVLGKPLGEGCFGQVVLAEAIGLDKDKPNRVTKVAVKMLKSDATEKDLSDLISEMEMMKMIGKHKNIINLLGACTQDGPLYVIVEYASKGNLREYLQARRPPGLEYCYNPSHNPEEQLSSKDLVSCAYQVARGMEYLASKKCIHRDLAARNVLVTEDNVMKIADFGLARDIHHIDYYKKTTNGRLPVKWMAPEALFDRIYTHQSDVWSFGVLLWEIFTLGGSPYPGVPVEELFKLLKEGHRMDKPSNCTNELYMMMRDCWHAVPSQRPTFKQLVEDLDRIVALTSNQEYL

human flk-1 = target: T2, human flk-1 (Homo sapiens, UniProt P35968); assay: Biochemical FLK-1 assay (flk-1 autophosphorylation ELISA); settings: read-out: bio FLK1 IC50 (μM) % if inhibition at 100
T2 construct: host or cells: Flk-1/NIH cells (NIH fibroblasts)
T2 sequence (P35968 20-1356): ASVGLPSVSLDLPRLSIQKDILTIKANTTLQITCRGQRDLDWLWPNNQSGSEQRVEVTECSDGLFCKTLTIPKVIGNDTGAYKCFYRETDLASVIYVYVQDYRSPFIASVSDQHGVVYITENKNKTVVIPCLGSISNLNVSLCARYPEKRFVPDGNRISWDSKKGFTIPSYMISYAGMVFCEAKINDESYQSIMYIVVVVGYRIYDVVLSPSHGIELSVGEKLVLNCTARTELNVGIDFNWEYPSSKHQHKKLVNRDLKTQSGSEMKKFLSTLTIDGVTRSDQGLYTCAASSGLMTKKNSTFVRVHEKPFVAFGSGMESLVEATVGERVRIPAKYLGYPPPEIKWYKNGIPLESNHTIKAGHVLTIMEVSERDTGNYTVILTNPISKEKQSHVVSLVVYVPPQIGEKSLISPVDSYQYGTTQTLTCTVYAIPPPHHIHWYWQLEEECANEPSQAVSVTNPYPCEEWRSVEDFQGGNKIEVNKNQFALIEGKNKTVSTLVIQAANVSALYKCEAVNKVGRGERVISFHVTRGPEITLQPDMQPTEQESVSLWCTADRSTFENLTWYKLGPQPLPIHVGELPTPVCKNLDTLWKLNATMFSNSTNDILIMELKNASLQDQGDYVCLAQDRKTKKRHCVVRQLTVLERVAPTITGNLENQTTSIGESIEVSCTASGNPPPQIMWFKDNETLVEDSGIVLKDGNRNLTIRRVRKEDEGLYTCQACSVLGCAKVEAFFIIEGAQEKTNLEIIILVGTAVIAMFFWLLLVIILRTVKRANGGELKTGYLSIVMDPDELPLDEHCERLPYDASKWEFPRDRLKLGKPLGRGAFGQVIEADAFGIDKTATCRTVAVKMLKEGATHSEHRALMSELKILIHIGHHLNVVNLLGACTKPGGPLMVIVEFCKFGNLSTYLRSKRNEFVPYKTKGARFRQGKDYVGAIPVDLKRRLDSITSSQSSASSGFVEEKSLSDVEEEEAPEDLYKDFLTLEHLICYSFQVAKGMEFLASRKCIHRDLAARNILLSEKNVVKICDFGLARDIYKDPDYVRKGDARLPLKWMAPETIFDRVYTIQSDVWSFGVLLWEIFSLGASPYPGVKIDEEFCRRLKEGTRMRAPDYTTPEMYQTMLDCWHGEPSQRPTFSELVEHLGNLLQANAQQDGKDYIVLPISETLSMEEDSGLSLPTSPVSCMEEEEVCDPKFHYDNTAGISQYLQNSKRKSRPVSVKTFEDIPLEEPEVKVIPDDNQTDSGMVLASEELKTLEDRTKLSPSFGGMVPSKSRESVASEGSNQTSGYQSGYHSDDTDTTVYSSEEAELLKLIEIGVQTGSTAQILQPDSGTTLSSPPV
Procedure: This assay evaluates flk-1 autophosphorylation activity in vitro using ELISA.
Materials And Reagents • 1. 15 cm tissue culture dishes • 2. Flk-1/NIH cells: NIH fibroblast line over-expressing human flk-1clone 3 (SUGEN, Inc., obtained from MPI, Martinsried, Germany). • 3. Growth medium: DMEM plus heat inactivated 10% FBS and 2 mM Glutamine (Gibco-BRL). • 4. Starvation medium: DMEM plus 0.5% heat-inactivated FBS, 2 mM Glutamine (Gibco-BRL). • 5. […] L4 or E38 monoclonal antibody specific for flk-1, Purified by Protein-A agarose affinity chromatography (SUGEN, Inc.). • 7. PBS (Dulbecco's Phosphate-Buffered Saline) Gibco Cat. No. 450-1300EB). • 8. HNTG (see BIOCHEMICAL FGFR for preparation). • 9. Pierce BCA protein determination kit. • 10. Blocking buffer • 11. TBST (pH 7.0) • 12. Kinase Buffer • 13. Kinase Stop Solution: 200 mM EDTA. • 14. […] AB kit (Vector Laboratories Cat. No. PK 4000). • 16. DMSO • 17. NUNC 96-well V bottom polypropylene plates (Applied Scientific Cat. No. AS-72092). • 18. Turbo-TMB (Pierce). • 19. Turbo-TMB stop solution: 1 M H2SO4. • 20. ATP (Sigma Cat. No. A-7699). • 21. 20% DMSO in TBS (pH 7.0). Procedure
Cell Growth and Lysate Preparation. • 1. Seed cell into growth medium and grow for 2-3 days to 90-100% confluency at 37° C. and 5% CO2.
2. Remove the medium and wash the cells twice with PBS. Lyse with HNTG lysis buffer. Collect all lysates and vortex mix them for 20-30 seconds. • 3. Remove insoluble material by centrifugation (5-10 min at about 10,000 ×g). • 4. Determine the protein concentration using BCA kit. • 5. Partition lysate into 1 mg aliquots, store at −80° C.
Assay Procedure • 1. Coat Corning 96-well ELISA plates with 2 μg/well purified L4 (or E 38) in 100 μl of PBS. Store overnight at […] • 2. Remove unbound proteins from wells by inverting the plate to remove the liquid. Wash one time with dH2O, pat plate on paper towel to remove excess liquid. • 3. Block plates with 150 μl blocking buffer per well. Incubate for 45-60 minutes with shaking at 4° C. • 4. Remove the blocking buffer and wash the ELISA plate three times with dH2O and one time with TBST. Pat plate on paper towel to remove excess liquid. • 5. Dilute lysate in PBS to give final concentration of 50 μg/100 μl. Add 100 μl of diluted lysate to each well. Incubate with shaking at 4° C. overnight. • 6. Remove unbound proteins from wells by inverting the plate. Wash as in step 4. • 7. Add 80 μl of kinase buffer to wells (90 μl to negative control wells). • 8. Dilute test compounds (normally 10-fold) into wells of a polypropylene plate containing 20% DMSO in TBS. • 9. Add 10 μl of the diluted compounds to the ELISA wells containing immobilized flk-1 and shake. Control wells receive no compounds. • 10. From stock 1 mM ATP, prepare 0.3 mM ATP solution in dH2O (alternatively, kinase buffer may be used). • 11. Add 10 μl of 0.3 mM ATP to all wells except the negative controls. Incubate for 60 min. at room temperature with shaking. • 12. After 1 hr stop the kinase reaction by adding 11 μl 200 mM EDTA. Shake for 1-2 min. • 13. Wash the ELISA plate 4 times with dH2O and twice with TBST. • 14. Add 100 μl of 1:5000 biotinylated 4G10:TBST to all wells. Incubate 45 min with shaking at room temperature. • 15. While the above is incubating, add 50 μl of solutions A & B from the ABC kit to 10 ml of TBST. These solutions must be combined approximately 30 min prior to use. • 16. Wash plates as in step 4. • 17. Add 100 μl of the preformed A & B complex to all wells. Incubate 30 min with shaking at room temperature. • 18. Wash plates as in step 4. • 19. Add 100 μl turbo-TMB. Shake at room temperature for 10-15 min. • 20. When the color in the positive control wells reaches an absorbance of about 0.35-0.4, stop the reaction with 100 μl of turbo-TMB stop solution. • 21. Read plates on Dynatech MR7000 ELISA reader, test filter: 450 nM, reference filter: 410 nM.

flkGST = target: T3, flkGST (Homo sapiens, UniProt P35968); assay: bio flkGST assay; assay type: biochemical
T3 construct: GST
T3 sequence (P35968 786-1356 limits assumed): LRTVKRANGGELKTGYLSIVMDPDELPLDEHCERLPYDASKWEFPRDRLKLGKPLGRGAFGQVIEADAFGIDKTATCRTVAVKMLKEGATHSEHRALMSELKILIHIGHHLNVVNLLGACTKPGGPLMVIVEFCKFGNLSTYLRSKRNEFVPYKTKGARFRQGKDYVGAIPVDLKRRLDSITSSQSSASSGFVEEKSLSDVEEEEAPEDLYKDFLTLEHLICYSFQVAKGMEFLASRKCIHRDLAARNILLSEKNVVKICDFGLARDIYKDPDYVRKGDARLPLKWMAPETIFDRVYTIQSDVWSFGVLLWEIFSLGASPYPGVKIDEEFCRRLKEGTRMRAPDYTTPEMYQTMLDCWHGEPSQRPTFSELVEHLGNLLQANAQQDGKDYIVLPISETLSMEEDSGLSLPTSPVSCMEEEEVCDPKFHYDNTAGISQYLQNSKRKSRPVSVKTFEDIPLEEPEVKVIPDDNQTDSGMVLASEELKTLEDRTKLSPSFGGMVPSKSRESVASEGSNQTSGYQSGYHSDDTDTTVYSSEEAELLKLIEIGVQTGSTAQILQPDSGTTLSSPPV

pyk2 = pyk2 (Homo sapiens, UniProt Q14289); assay: bio pyk2 assay; assay type: biochemical
Chain of pyk2 (Q14289 whole entry, species assumed): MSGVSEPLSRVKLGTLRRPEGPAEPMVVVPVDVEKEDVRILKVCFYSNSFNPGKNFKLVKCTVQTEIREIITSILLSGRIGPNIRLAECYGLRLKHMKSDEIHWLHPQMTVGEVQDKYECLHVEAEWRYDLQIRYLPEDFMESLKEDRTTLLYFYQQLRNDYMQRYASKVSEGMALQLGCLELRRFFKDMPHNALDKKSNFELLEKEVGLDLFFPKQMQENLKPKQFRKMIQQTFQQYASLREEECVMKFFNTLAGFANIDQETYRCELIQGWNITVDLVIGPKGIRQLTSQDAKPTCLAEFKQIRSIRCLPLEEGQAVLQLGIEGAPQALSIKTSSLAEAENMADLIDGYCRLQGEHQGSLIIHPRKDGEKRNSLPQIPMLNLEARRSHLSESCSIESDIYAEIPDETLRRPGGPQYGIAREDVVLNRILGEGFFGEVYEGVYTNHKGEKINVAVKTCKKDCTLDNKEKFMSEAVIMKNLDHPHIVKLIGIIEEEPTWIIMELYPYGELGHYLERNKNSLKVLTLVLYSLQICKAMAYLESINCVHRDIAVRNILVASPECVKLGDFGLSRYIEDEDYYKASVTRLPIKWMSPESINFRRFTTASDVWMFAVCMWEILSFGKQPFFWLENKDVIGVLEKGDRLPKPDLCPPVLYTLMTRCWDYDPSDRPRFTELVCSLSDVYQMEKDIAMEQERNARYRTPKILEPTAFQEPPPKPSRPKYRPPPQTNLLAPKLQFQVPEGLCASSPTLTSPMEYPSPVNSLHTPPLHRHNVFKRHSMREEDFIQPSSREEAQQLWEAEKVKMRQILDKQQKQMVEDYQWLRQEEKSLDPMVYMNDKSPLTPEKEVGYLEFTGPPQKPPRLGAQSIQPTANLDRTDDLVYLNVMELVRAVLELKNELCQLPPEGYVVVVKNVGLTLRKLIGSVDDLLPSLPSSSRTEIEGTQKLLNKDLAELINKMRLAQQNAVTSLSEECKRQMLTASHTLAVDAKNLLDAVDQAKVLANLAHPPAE

T1 sequence (P09619 33-1106): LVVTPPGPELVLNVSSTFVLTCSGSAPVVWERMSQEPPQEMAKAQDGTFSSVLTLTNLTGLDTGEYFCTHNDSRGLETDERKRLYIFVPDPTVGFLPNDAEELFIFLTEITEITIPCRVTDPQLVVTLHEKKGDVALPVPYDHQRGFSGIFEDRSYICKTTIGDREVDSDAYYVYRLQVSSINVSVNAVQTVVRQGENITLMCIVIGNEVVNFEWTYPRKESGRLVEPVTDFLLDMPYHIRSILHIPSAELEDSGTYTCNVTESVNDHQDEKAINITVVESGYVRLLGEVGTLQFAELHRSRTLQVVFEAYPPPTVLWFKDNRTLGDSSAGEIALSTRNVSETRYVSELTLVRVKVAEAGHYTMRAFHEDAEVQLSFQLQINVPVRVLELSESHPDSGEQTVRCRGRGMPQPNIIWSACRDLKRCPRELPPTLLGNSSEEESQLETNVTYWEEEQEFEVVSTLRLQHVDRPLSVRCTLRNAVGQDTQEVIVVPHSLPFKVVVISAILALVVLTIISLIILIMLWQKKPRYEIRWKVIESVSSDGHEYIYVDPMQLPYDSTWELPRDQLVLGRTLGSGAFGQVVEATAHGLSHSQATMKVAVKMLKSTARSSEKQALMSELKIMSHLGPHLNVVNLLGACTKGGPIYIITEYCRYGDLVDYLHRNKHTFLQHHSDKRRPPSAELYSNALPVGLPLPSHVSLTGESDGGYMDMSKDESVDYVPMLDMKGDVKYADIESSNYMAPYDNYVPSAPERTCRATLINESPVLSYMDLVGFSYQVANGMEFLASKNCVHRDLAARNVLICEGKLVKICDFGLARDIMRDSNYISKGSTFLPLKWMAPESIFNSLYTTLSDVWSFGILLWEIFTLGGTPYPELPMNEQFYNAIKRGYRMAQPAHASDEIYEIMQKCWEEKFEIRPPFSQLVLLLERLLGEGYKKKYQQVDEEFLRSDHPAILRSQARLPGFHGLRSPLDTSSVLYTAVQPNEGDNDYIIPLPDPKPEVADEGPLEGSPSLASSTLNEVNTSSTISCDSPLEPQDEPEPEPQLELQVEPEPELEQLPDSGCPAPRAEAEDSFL

With `Cc1cccc2c1/C(=C/c1[nH]c3ccccc3c1C)C(=O)N2` [Example 170, 4-Methyl-3-(3-methyl-1H-indol-2-ylmethylene)-1,3-dihydroindol-2-one] the IC50 (PDGFR-β) was greater than 100 µM, the IC50 [1] was greater than 20 µM and the IC50 (human flk-1) was 10.7 µM.

Work on `COc1ccccc1-c1ccc2c(c1)NC(=O)/C2=C\c1[nH]c2c(c1CCC(=O)O)CCCC2` [Example 207, 3-{2-[6-(2-Methoxyphenyl)-2-oxo-1,2-dihydro-indol-3-ylidenemethyl]-4,5,6,7-tetrahydro-1H-indol-3-yl}-propionic acid] yielded an IC50 (PDGFR-β) of 0.87 µM, an IC50 [1] of 7.7 µM and an IC50 (human flk-1) of 2.72 µM. For the same compound, the IC50 (flkGST) was 1500 nM.

With `Nc1ccc2c(c1)/C(=C/c1cc3ccccc3[nH]1)C(=O)N2` [Example 160, 5-Amino-3-(1H-indol-2-ylmethylene)-1,3-dihydro-indol-2-one] the IC50 (PDGFR-β) was 2.72 µM, the IC50 [1] was 5.27 µM and the IC50 (human flk-1) was 1.53 µM. It also gave an IC50 (flkGST) of 120 nM.

`Cc1c(/C=C2\C(=O)Nc3ccc(Br)cc32)[nH]c2ccccc12` [Example 169, 5-bromo-3-(3-methyl-1H-indol-2-ylmethylene)-1,3-dihydro-indol-2-one] gave an IC50 (PDGFR-β) greater than 100 µM, an IC50 [1] greater than 20 µM and an IC50 (human flk-1) of 15.8 µM.

Work on `O=C1Nc2ccc(C(=O)O)cc2/C1=C/c1cc2ccccc2[nH]1` [Example 161, 3-(-1H-Indol-2-ylmethylene)-2-oxo-2,3-dihydro-1H-indole-5-carboxylic acid] yielded an IC50 (PDGFR-β) of 25.1 µM, an IC50 [1] greater than 20 µM and an IC50 (human flk-1) of 2.1 µM. For the same compound, the IC50 (flkGST) was less than 8 nM.

With `Cc1[nH]c2ccccc2c1/C=C1\C(=O)Nc2ccc(S(=O)(=O)N(C)C)cc21` [Example 184, 3-(2-Methyl-1H-indol-3-ylmethylene)-2-oxo-2,3-dihydro-1H-indole-5-sulfonic acid dimethylamide] the IC50 (PDGFR-β) was greater than 100 µM, the IC50 [1] was 8.6 µM and the IC50 (flkGST) was greater than 20000 nM. It also gave an IC50 (pyk2) greater than 100 µM.

`CC(=O)c1ccc2c(c1)C(=Cc1cc3ccccc3[nH]1)C(=O)N2` [Example 158, 5-Acetyl-3-(1H-indol-2-ylmethylene)-1,3-dihydro-indol-2-one] was tested, and the IC50 (PDGFR-β) was 18 µM, the IC50 [1] was greater than 20 µM and the IC50 (flkGST) was 260 nM. It also gave an IC50 (pyk2) of 12.3 µM.

In the case of `CN(C)S(=O)(=O)c1ccc2c(c1)/C(=C/c1ccc3[nH]ccc3c1)C(=O)N2` [Example 183, 3-(1H-Indol-5-ylmethylene)-2-oxo-2,3-dihydro-1H-indole-5-sulfonic acid dimethylamide], the IC50 (PDGFR-β) is reported as greater than 100 µM, the IC50 [1] is reported as 7.68 µM and the IC50 (flkGST) is reported as 1550 nM. It also gave an IC50 (pyk2) greater than 100 µM.

`Cc1c(/C=C2\C(=O)Nc3ccc(S(N)(=O)=O)cc32)[nH]c2ccccc12` [Example 175, 3-(3-Methyl-1H-indol-2-ylmethylene)-2-oxo-2,3-dihydro-1H-indole-5-sulfonic acid amide] gave an IC50 (PDGFR-β) of 55.4 µM, an IC50 [1] of 0.73 µM and an IC50 (flkGST) of 1510 nM. It also gave an IC50 (pyk2) of 5.53 µM.
